Patent US20040033587A1, “Method and device for detecting Biologically Active Substances” (Bayer Aktiengesellschaft, priority 2002, published 2004)

Tested on: Vibrio fischeri
Assay: increase in luminescence of Vibrio fischeri culture with addition of aspartic acid to the cultivation medium
Format: cell-based
Settings: 12.5 mg of aspartic acid added to cultivation medium; aspartic acid-free medium starts only at a later time
Experimental: In two cultivation experiments carried out in parallel, bacterial suspensions were prepared according to the method described below. In order to test the influence of aspartic acid, 12.5 mg of aspartic acid had been added to the cultivation medium of one of the two reaction mixtures. The effect of the addition of aspartic acid was detected by taking luminescence images using the Nightowl camera system from EG&G Berthold and is depicted in FIGS. 2a and 2b.
A tissue culture flask (e.g. Falcon Cat. No. 353110) which contains 125 ml of cultivation medium and a magnetic stirring bar was inoculated with bacteria from a Vibrio fischeri strain stock. The inoculated cultivation solution was then incubated with slow stirring on a magnetic stirrer at room temperature.

## N[C@@H](CC(=O)O)C(=O)O [aspartic acid]
  incubation time after which the culture showed a distinct luminescence: ≤ 18 h
